Reference: ChEMBL document CHEMBL1909046, “DrugMatrix in vitro pharmacology data”

How the values were obtained:
[1] = target: T1, Alpha-1B adrenergic receptor (Rattus norvegicus, UniProt P15823); assay: DRUGMATRIX: Alpha-1B adrenergic receptor radioligand binding (ligand: prazosin); assay type: cell membranes, Wistar, Liver, Membrane; details: Not Active = under 50% inhibition at 10 µM
T1 sequence (P15823 whole entry): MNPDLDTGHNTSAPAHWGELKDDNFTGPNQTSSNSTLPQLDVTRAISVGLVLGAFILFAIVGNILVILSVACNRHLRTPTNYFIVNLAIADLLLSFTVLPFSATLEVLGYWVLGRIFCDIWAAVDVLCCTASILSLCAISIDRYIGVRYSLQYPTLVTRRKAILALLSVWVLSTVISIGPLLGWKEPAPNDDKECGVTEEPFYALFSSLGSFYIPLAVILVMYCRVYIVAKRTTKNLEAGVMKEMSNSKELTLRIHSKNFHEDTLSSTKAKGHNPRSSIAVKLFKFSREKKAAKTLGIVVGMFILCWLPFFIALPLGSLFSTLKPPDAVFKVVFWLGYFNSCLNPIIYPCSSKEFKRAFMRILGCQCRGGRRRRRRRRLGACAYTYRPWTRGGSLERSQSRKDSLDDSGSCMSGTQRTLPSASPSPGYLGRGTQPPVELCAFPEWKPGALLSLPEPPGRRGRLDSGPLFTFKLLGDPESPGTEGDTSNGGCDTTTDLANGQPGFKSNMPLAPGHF

[2] = target: T2, Alpha-2A adrenergic receptor (Homo sapiens, UniProt P08913); assay type: cell membranes, Sf9, Membrane; further: in other assays of this panel Not Active means under 50% inhibition at 10 µM
T2 sequence (P08913 whole entry): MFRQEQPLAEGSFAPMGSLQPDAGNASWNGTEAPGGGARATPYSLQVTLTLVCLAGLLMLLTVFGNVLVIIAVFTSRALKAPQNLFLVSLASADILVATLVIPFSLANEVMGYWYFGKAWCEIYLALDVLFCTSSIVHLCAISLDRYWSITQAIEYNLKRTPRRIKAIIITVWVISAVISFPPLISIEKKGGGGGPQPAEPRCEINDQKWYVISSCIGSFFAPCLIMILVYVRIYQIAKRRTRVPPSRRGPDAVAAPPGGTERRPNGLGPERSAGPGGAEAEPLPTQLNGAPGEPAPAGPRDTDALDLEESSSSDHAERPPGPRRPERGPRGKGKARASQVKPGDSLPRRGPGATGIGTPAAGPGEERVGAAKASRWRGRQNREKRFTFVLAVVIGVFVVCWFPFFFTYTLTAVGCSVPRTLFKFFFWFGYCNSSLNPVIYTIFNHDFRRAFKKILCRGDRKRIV

[3] = target: Sigma non-opioid intracellular receptor 1 (Homo sapiens, UniProt Q99720); assay: DRUGMATRIX: Sigma1 radioligand binding (ligand: [3H] Haloperidol); assay type: cell membranes, Jurkat, Membrane; details: Not Active = under 50% inhibition at 10 µM
[4] = DRUGMATRIX: GABAA, Muscimol, Central radioligand binding (ligand: [3H] Muscimol); assay type: cell membranes, Rattus norvegicus, Wistar, Brain, Membrane; details: Not Active = under 50% inhibition at 10 µM
[5] = DRUGMATRIX: Interleukin IL-1 radioligand binding (ligand: [125I] interleukin 1beta); assay type: cell membranes, Membrane; details: nih3t3; Not Active = under 50% inhibition at 10 µM
Progesterone receptor = target: T3, Progesterone receptor (Bos taurus, UniProt Q690N0); assay: DRUGMATRIX: Progesterone radioligand binding (ligand: [3H] R-5020); assay type: tissue-based, Uterus; details: Not Active = under 50% inhibition at 10 µM
T3 sequence (Q690N0 whole entry): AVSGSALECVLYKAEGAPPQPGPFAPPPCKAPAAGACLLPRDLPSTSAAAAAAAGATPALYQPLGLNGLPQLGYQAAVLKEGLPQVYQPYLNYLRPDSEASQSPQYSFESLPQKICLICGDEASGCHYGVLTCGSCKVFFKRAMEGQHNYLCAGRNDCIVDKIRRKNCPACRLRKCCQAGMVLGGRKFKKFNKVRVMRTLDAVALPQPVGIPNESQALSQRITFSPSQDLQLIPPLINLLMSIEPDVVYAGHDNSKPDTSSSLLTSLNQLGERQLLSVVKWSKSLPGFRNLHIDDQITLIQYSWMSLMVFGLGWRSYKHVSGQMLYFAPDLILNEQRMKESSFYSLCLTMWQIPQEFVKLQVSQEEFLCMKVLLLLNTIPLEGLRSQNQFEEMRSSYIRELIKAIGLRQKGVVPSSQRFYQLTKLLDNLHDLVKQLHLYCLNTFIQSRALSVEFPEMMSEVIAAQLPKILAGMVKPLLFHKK

Chain of Sigma non-opioid intracellular receptor 1 (Q99720 whole entry): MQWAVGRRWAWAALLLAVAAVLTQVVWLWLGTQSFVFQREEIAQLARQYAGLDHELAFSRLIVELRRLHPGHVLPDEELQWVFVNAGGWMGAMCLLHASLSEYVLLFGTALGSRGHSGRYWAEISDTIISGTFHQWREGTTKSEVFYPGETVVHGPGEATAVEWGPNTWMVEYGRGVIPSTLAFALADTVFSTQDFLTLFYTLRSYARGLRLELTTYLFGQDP

## Cc1cccc(C)c1NC(=O)C1CCCCN1C (stereo not given) [MEPIVACAINE]
[1]
  IC50: Not Active
[2]; sf9
  IC50: Not Active
[3]; jurkat
  IC50: Not Active
[4]
  IC50: Not Active
  Ki: Not Active
[5]
  IC50: Not Active
  Ki: Not Active
Progesterone receptor
  IC50: Not Active

## O=c1[nH]c(=O)n([C@H]2C[C@H](O)[C@@H](CO)O2)cc1F [FLOXURIDINE]
[1]
  IC50: Not Active
[2]; sf9
  IC50: Not Active
[3]; jurkat
  IC50: Not Active
[4]
  IC50: Not Active
  Ki: Not Active
[5]
  IC50: Not Active
  Ki: Not Active
Progesterone receptor
  IC50: Not Active

## O=C(O)CC(O)(CC(=O)O)C(=O)O [CITRIC ACID]
[1]
  IC50: Not Active
[2]; sf9
  IC50: Not Active
[3]; jurkat
  IC50: Not Active
[4]
  IC50: Not Active
  Ki: Not Active
[5]
  IC50: Not Active
  Ki: Not Active
Progesterone receptor
  IC50: Not Active

## Cc1cc(O)cc(C)c1Cl [CHLOROXYLENOL]
[1]
  IC50: Not Active
[2]; sf9
  IC50: Not Active
[3]; jurkat
  IC50: Not Active
[4]
  IC50: Not Active
  Ki: Not Active
[5]
  IC50: Not Active
  Ki: Not Active
Progesterone receptor
  IC50: Not Active

## O=C(O)CCCc1cccs1
[1]
  IC50: Not Active
[2]; sf9
  IC50: Not Active
[3]; jurkat
  IC50: Not Active
[4]
  IC50: Not Active
  Ki: Not Active
[5]
  IC50: Not Active
  Ki: Not Active
Progesterone receptor
  IC50: Not Active

## CCCNC(=O)NS(=O)(=O)c1ccc(Cl)cc1 [CHLORPROPAMIDE]
[1]
  IC50: Not Active
[2]; sf9
  IC50: Not Active
[3]; jurkat
  IC50: Not Active
[4]
  IC50: Not Active
  Ki: Not Active
[5]
  IC50: Not Active
  Ki: Not Active
Progesterone receptor
  IC50: Not Active

## CC(=O)OC[C@H]1O[C@@H](n2ncc(=O)[nH]c2=O)[C@H](OC(C)=O)[C@@H]1OC(C)=O [AZARIBINE]
[1]
  IC50: Not Active
[2]; sf9
  IC50: Not Active
[3]; jurkat
  IC50: Not Active
[4]
  IC50: Not Active
  Ki: Not Active
[5]
  IC50: Not Active
  Ki: Not Active
Progesterone receptor
  IC50: Not Active

## CC(C)(C)NCC(O)COc1cccc2c1CC(O)C(O)C2 (stereo not given) [NADOLOL]
[1]
  IC50: Not Active
[2]; sf9
  IC50: Not Active
[3]; jurkat
  IC50: Not Active
[4]
  IC50: Not Active
  Ki: Not Active
[5]
  IC50: Not Active
  Ki: Not Active
Progesterone receptor
  IC50: Not Active

## C[C@H]1COc2c(N3CCN(C)CC3)c(F)cc3c(=O)c(C(=O)O)cn1c23.C[C@H]1COc2c(N3CCN(C)CC3)c(F)cc3c(=O)c(C(=O)O)cn1c23.O [LEVOFLOXACIN]
[1]
  IC50: Not Active
[2]; sf9
  IC50: Not Active
[3]; jurkat
  IC50: Not Active
[4]
  IC50: Not Active
  Ki: Not Active
[5]
  IC50: Not Active
  Ki: Not Active
Progesterone receptor
  IC50: Not Active

## COc1ccnc(C[S+]([O-])c2nc3ccc(OC(F)F)cc3[nH]2)c1OC (stereo not given) [PANTOPRAZOLE]
[1]
  IC50: Not Active
[2]; sf9
  IC50: Not Active
[3]; jurkat
  IC50: Not Active
[4]
  IC50: Not Active
  Ki: Not Active
[5]
  IC50: Not Active
  Ki: Not Active
Progesterone receptor
  IC50: Not Active

## CCCCC1=NC2(CCCC2)C(=O)N1Cc1ccc(-c2ccccc2-c2nnn[nH]2)cc1 [IRBESARTAN]
[1]
  IC50: Not Active
[2]; sf9
  IC50: Not Active
[3]; jurkat
  IC50: Not Active
[4]
  IC50: Not Active
  Ki: Not Active
[5]
  IC50: Not Active
  Ki: Not Active
Progesterone receptor
  IC50: Not Active

## COC(=O)Nc1nc2cc(C(=O)c3ccc(F)cc3)ccc2[nH]1 [FLUBENDAZOLE]
[1]
  IC50: Not Active
[2]; sf9
  IC50: Not Active
[3]; jurkat
  IC50: Not Active
[4]
  IC50: Not Active
  Ki: Not Active
[5]
  IC50: Not Active
  Ki: Not Active
Progesterone receptor
  IC50: Not Active

## CN(C)CCC=C1c2ccccc2CCc2ccccc21 [AMITRIPTYLINE]
[1]; read-out: IC50
  IC50: 76 nM
[1]; read-out: Ki
  Ki: 42 nM
[2]; read-out: IC50
  IC50: 351 nM
[2]; read-out: Ki
  Ki: 132 nM
[3]; read-out: IC50
  IC50: 1030 nM
[3]; read-out: Ki
  Ki: 433 nM
[4]
  IC50: Not Active
  Ki: Not Active
[5]
  IC50: Not Active
  Ki: Not Active
Progesterone receptor
  IC50: Not Active

## Cc1ccc(C)c(OCCCC(C)(C)C(=O)O)c1 [GEMFIBROZIL]
[1]
  IC50: Not Active
[2]; sf9
  IC50: Not Active
[3]; jurkat
  IC50: Not Active
[4]
  IC50: Not Active
  Ki: Not Active
[5]
  IC50: Not Active
  Ki: Not Active
Progesterone receptor
  IC50: Not Active
